Reference: patent US9907637B2, “Modular bioresorbable or biomedical, biologically active supramolecular materials” (SupraPolix B.V., priority 2005, dated 2018)

Legend:
[1] = Extraction of peptide out of polymer films with water, LC-MS; type: physicochemical; conditions: 2 hours at 37° C. in 1 mL water, 4 mole % peptide
[2] = as above; type: physicochemical; conditions: for peptide dissolved: 80 minutes at 37° C. in a total volume of 5 mL water, 4 mole % peptide; for extraction: water 37° C., 4 mole % peptide in film of polymer of example 14
Experimental: The extraction of the peptide of example 18 and the peptide GRGDS without a UPy-unit out of films of example 29a was investigated with LC-MS measurements. The amount of peptide that was mixed in the polymeric materials is in both cases 4 mole %. Calibration was performed by quantification of one fragment of the parent ion (MS^2) of the peptides using different concentrations of the peptides. The surface area of the corresponding peak (in the total ion count) was calculated with the ICIS algorithm. The extraction experiments were performed as follows: the film was incubated at 37° C. for 5 minutes in 1 mL water, then the water was removed and the concentration of peptide was measured with the described LC-MS procedure (time-point: 5 minutes); another 1 mL water was added to the film which was subsequently incubated again for 5 minutes at 37° C. followed by removal of the water which was analysed with the LC-MS method (time-point: 10 minutes); another 1 mL water was added to the film and the sample was incubated for 10 minutes at 37° C. followed by removal of the water which was analysed with the LC-MS method (time-point: 20 minutes); incubation at 37° C. in another 1 mL water for 20 minutes, followed by removal of the water which was analysed with the LC-MS method (time-point: 40 minutes); and incubation at 37° C. in another 1 mL water for 40 minutes, followed by removal of the water which was analysed with the LC-MS method (time-point: 80 minutes).

Substance	peptide dissolved [1]	peptide dissolved [2]	extraction ([2]; time 5 min)	extraction ([2]; time 10 min)	extraction ([2]; time 20 min)	dissolution of peptide from film ([2]; within 5 minutes, water at 37° C.)
GRGDS	101%	105%	91%	97%	100%	almost all of the peptide is dissolved
UPy-GRGDS [Example 18]	64%	76%	39%	60%	76%	
